# Measured values taken from patent US11945822B2, “Pyrazolo-triazine and/or pyrazolo-pxrimidine derivatives as selective inhibitor of cyclin dependent kinase” (QURIENT CO., LTD., priority 2018, dated 2024).
# Molecular target: T1, CDK1/Cyclin B (Homo sapiens, UniProt P06493)
# T1 construct: purchased Invitrogen PR4768C
# Test: Enzymatic assay for CDK1 (FRET based LANCE Ultra kinase assay)
# Format: biochemical
# Settings: read-out: CDK1 enzymatic activity (IC50 range)
# Outline: (§1)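 LANCE Ultra TR-FRET: ULight-MBP peptide (68 nM) with ATP at Km, […], 60 min at 23° C. EDTA plus Eu-anti-phospho-MBP added, another 60 min, then 665/615 nm emission read. Compounds tested as 8-dose 4-fold DMSO dilutions.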
# T1 sequence (P06493 whole entry): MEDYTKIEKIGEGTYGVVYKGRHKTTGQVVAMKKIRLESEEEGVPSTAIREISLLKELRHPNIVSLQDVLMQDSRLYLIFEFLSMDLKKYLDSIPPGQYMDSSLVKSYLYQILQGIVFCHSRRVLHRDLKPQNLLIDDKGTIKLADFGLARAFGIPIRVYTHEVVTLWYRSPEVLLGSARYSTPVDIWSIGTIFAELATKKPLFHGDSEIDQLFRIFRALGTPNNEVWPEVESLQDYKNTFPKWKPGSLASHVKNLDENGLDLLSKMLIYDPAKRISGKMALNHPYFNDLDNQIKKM
# T1 sequence (P14635 whole entry partner): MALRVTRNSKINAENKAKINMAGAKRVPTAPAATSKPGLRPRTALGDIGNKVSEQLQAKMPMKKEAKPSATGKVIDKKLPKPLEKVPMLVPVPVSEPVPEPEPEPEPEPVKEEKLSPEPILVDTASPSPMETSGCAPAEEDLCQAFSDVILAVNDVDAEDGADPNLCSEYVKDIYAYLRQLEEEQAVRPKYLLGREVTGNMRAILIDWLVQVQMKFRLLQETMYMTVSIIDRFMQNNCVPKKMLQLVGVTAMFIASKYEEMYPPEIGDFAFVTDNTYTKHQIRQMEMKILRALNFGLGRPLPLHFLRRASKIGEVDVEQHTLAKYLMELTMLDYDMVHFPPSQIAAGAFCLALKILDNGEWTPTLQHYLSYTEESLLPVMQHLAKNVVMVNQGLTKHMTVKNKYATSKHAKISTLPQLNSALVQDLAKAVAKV
row,IC50,Compound
1,> 1 µM,CC(C)c1cnn2c(NCc3ccccc3-c3ccc4ccccc4n3)nc(NCC[C@H](O)CN)nc12 [Compound 247]
2,> 1 µM,CC(C)c1cnn2c(NCc3c(Cl)cccc3-n3ccc(C(C)(C)O)n3)nc(N3CCC(C)(N)CC3)nc12 [Compound 246]
3,> 1 µM,CC(C)c1cnn2c(NCc3ccccc3-c3ccc4cc(C(C)(C)O)ccc4n3)nc(N3CCC(O)(CN)CC3)nc12 [Compound 243]
4,> 1 µM,CC(C)c1cnn2c(NCc3c(Cl)cccc3C#N)nc(N3CCC(N)CC3)nc12 [Compound 242]

# Molecular target: T2, CDK2/Cyclin A (Homo sapiens, UniProt P24941)
# T2 construct: purchased Invitrogen PV6290
# Test: Enzymatic assay for CDK2 (FRET based LANCE Ultra kinase assay)
# Format: biochemical
# Settings: read-out: CDK2 enzymatic activity (IC50 range)
# Outline: as §1
row,IC50,Compound
1,> 1 µM,CC(C)c1cnn2c(NCc3ccccc3-c3ccc4ccccc4n3)nc(NCC[C@H](O)CN)nc12 [Compound 247]
2,> 1 µM,CC(C)c1cnn2c(NCc3c(Cl)cccc3-n3ccc(C(C)(C)O)n3)nc(N3CCC(C)(N)CC3)nc12 [Compound 246]
3,> 1 µM,CC(C)c1cnn2c(NCc3ccccc3-c3ccc4cc(C(C)(C)O)ccc4n3)nc(N3CCC(O)(CN)CC3)nc12 [Compound 243]
4,0.1 to 1 µM,CC(C)c1cnn2c(NCc3c(Cl)cccc3C#N)nc(N3CCC(N)CC3)nc12 [Compound 242]

# Molecular target: T3, CDK5/p25 (Homo sapiens, UniProt Q00535)
# T3 construct: purchased Invitrogen PR8543B
# T3 sequence (Q00535 whole entry): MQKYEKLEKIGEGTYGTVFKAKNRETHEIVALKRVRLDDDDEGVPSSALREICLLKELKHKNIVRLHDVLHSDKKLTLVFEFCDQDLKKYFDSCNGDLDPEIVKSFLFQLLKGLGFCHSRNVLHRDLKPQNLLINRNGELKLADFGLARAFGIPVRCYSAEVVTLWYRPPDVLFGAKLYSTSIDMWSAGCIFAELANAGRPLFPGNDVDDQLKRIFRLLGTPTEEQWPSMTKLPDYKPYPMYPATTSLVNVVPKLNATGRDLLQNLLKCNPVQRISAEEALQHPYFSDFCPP
# T3 sequence (Q15078 99-307 partner limits assumed): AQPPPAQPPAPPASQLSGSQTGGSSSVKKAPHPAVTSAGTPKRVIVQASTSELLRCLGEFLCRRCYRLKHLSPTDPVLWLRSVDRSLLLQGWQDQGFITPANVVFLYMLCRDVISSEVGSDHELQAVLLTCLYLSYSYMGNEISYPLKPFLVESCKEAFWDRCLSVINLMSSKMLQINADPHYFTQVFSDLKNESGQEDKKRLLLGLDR
# Test: Enzymatic assay for CDK5 (FRET based LANCE Ultra kinase assay)
# Format: biochemical
# Settings: read-out: CDK5 enzymatic activity (IC50 range)
# Outline: as §1
row,IC50,Compound
1,> 1 µM,CC(C)c1cnn2c(NCc3ccccc3-c3ccc4ccccc4n3)nc(NCC[C@H](O)CN)nc12 [Compound 247]
2,> 1 µM,CC(C)c1cnn2c(NCc3c(Cl)cccc3-n3ccc(C(C)(C)O)n3)nc(N3CCC(C)(N)CC3)nc12 [Compound 246]
3,> 1 µM,CC(C)c1cnn2c(NCc3ccccc3-c3ccc4cc(C(C)(C)O)ccc4n3)nc(N3CCC(O)(CN)CC3)nc12 [Compound 243]
4,0.1 to 1 µM,CC(C)c1cnn2c(NCc3c(Cl)cccc3C#N)nc(N3CCC(N)CC3)nc12 [Compound 242]

# Molecular target: T4, CDK7/Cyclin H/MNAT1 (Homo sapiens, UniProt P50613)
# T4 construct: purchased Invitrogen PR6749B
# T4 sequence (P50613 whole entry): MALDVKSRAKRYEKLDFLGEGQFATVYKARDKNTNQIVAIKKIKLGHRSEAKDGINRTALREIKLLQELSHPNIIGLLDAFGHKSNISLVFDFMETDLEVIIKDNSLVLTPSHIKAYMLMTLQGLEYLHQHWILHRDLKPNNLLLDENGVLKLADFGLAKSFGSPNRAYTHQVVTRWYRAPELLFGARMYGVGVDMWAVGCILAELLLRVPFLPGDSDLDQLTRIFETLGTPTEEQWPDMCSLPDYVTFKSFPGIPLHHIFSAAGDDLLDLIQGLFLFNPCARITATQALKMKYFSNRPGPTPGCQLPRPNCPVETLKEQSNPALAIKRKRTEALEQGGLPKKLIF
# T4 sequence (P51946 whole entry partner): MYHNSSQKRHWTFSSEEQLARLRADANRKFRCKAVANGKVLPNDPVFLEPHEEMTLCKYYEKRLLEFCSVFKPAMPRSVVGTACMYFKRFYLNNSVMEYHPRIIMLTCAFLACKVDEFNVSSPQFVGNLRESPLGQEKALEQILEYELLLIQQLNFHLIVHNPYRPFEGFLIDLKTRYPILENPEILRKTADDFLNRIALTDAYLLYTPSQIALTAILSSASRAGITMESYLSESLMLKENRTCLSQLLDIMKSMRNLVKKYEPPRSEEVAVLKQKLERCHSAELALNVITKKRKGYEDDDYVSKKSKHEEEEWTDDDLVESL
# T4 sequence (P51948 whole entry partner): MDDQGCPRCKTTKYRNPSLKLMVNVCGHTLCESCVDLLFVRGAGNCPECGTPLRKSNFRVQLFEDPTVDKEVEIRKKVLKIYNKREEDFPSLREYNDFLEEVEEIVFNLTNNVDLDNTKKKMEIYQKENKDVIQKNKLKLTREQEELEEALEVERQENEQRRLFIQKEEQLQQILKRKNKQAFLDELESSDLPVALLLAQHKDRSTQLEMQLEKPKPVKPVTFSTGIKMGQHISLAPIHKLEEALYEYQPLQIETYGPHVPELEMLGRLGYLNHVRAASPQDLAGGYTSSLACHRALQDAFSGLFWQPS
# Test: Enzymatic assay for CDK7 (FRET based LANCE Ultra kinase assay)
# Format: biochemical
# Settings: CDK7 over CDK1
# Outline: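 LANCE Ultra TR-FRET kinase assay using a ULight-labeled peptide substrate and a Eu-labeled anti-phospho antibody, with ATP at its Km. Purified CDK/cyclin complex was added to compound after brief centrifugation.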
row,CDK1/CDK7: Selectivity of CDK7 inhibition over CDK1 inhibition,Compound
1,A (A=greater than 200 fold),CC(C)c1cnn2c(NCc3ccccc3-c3ccc4ccccc4n3)nc(NCC[C@H](O)CN)nc12 [Compound 247]
2,A (A=greater than 200 fold),CC(C)c1cnn2c(NCc3c(Cl)cccc3-n3ccc(C(C)(C)O)n3)nc(N3CCC(C)(N)CC3)nc12 [Compound 246]
3,A (A=greater than 200 fold),CC(C)c1cnn2c(NCc3ccccc3-c3ccc4cc(C(C)(C)O)ccc4n3)nc(N3CCC(O)(CN)CC3)nc12 [Compound 243]
4,A (A=greater than 200 fold),CC(C)c1cnn2c(NCc3c(Cl)cccc3C#N)nc(N3CCC(N)CC3)nc12 [Compound 242]

# Same assay, conditions: CDK7 over CDK2
row,CDK2/CDK7: Selectivity of CDK7 inhibition over CDK2 inhibition,Compound
1,A (A=greater than 200 fold),CC(C)c1cnn2c(NCc3ccccc3-c3ccc4ccccc4n3)nc(NCC[C@H](O)CN)nc12 [Compound 247]
2,A (A=greater than 200 fold),CC(C)c1cnn2c(NCc3c(Cl)cccc3-n3ccc(C(C)(C)O)n3)nc(N3CCC(C)(N)CC3)nc12 [Compound 246]
3,A (A=greater than 200 fold),CC(C)c1cnn2c(NCc3ccccc3-c3ccc4cc(C(C)(C)O)ccc4n3)nc(N3CCC(O)(CN)CC3)nc12 [Compound 243]

row,Compound,CDK2/CDK7: Selectivity of CDK7 inhibition over CDK2 inhibition
1,CC(C)c1cnn2c(NCc3c(Cl)cccc3C#N)nc(N3CCC(N)CC3)nc12 [Compound 242],"B (B=less than 200 fold, but greater than 20 fold)"

# Same assay, conditions: CDK7 over CDK5
row,CDK5/CDK7: Selectivity of CDK7 inhibition over CDK5 inhibition,Compound
1,A (A=greater than 200 fold),CC(C)c1cnn2c(NCc3ccccc3-c3ccc4ccccc4n3)nc(NCC[C@H](O)CN)nc12 [Compound 247]
2,A (A=greater than 200 fold),CC(C)c1cnn2c(NCc3c(Cl)cccc3-n3ccc(C(C)(C)O)n3)nc(N3CCC(C)(N)CC3)nc12 [Compound 246]
3,A (A=greater than 200 fold),CC(C)c1cnn2c(NCc3ccccc3-c3ccc4cc(C(C)(C)O)ccc4n3)nc(N3CCC(O)(CN)CC3)nc12 [Compound 243]

row,Compound,CDK5/CDK7: Selectivity of CDK7 inhibition over CDK5 inhibition
1,CC(C)c1cnn2c(NCc3c(Cl)cccc3C#N)nc(N3CCC(N)CC3)nc12 [Compound 242],"B (B=less than 200 fold, but greater than 20 fold)"

# Same assay, conditions: read-out: CDK7 enzymatic activity (IC50 range)
row,IC50,Compound
1,< 0.1 µM,CC(C)c1cnn2c(NCc3ccccc3-c3ccc4ccccc4n3)nc(NCC[C@H](O)CN)nc12 [Compound 247]
2,< 0.1 µM,CC(C)c1cnn2c(NCc3c(Cl)cccc3-n3ccc(C(C)(C)O)n3)nc(N3CCC(C)(N)CC3)nc12 [Compound 246]
3,< 0.1 µM,CC(C)c1cnn2c(NCc3ccccc3-c3ccc4cc(C(C)(C)O)ccc4n3)nc(N3CCC(O)(CN)CC3)nc12 [Compound 243]
4,< 0.1 µM,CC(C)c1cnn2c(NCc3c(Cl)cccc3C#N)nc(N3CCC(N)CC3)nc12 [Compound 242]

# System: H460
# Test: Cellular H460 viability assay (CellTiter-Glo, 72 hours)
# Format: cell-based
# Settings: Homo sapiens, NCI-H460
# Outline: (§2)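 Cells plated in 96 wells and exposed to compound 72 h at 37 °C, 5% CO2, final DMSO below 0.1%, DMSO control. Viability by CellTiter-Glo luminescence, duplicate.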
row,IC50,Compound
1,1 to 10 µM,CC(C)c1cnn2c(NCc3ccccc3-c3ccc4ccccc4n3)nc(NCC[C@H](O)CN)nc12 [Compound 247]
2,< 1 µM,CC(C)c1cnn2c(NCc3c(Cl)cccc3-n3ccc(C(C)(C)O)n3)nc(N3CCC(C)(N)CC3)nc12 [Compound 246]
3,< 1 µM,CC(C)c1cnn2c(NCc3ccccc3-c3ccc4cc(C(C)(C)O)ccc4n3)nc(N3CCC(O)(CN)CC3)nc12 [Compound 243]
4,< 1 µM,CC(C)c1cnn2c(NCc3c(Cl)cccc3C#N)nc(N3CCC(N)CC3)nc12 [Compound 242]

# System: MV4-11
# Test: Cellular MV4-11 viability assay (CellTiter-Glo, 72 hours)
# Format: cell-based
# Settings: Homo sapiens
# Outline: as §2
row,IC50,Compound
1,1 to 10 µM,CC(C)c1cnn2c(NCc3ccccc3-c3ccc4ccccc4n3)nc(NCC[C@H](O)CN)nc12 [Compound 247]
2,< 1 µM,CC(C)c1cnn2c(NCc3c(Cl)cccc3-n3ccc(C(C)(C)O)n3)nc(N3CCC(C)(N)CC3)nc12 [Compound 246]
3,< 1 µM,CC(C)c1cnn2c(NCc3ccccc3-c3ccc4cc(C(C)(C)O)ccc4n3)nc(N3CCC(O)(CN)CC3)nc12 [Compound 243]
4,< 1 µM,CC(C)c1cnn2c(NCc3c(Cl)cccc3C#N)nc(N3CCC(N)CC3)nc12 [Compound 242]

# System: A2780
# Test: Cellular A2780 viability assay (CellTiter-Glo, 72 hours)
# Format: cell-based
# Settings: Homo sapiens
# Description: Human T-cell acute lymphoblastic leukemia cell line, MOLT-4 (ATCC, Cat #CRL-1582), Human multiple myeloma cell line, RPMI-8226 (Invitrogen, Cat #22400-089) and MM.1S (ATCC, Cat #CRL-2974), NSCLC (Non-small cell lung cancer) cell line H460 (ATCC, Cat #HTB-177), Human colon colorectal carcinoma cell line HCT116 (ATCC, Cat #CCL-247), Human acute monocytic leukemia cell line MV4-11 (ATCC, Cat #CRL-9591), OVCAR-3 (ATCC, Cat #HTB-161) and A2780 (ECACC, Cat #93112519) were obtained from ATCC. Cells were grown in RPMI-1640 media (Invitrogen, Cat #22400-089) supplemented with 10% FBS (Invitrogen, Cat #10099141) and 1% penicillin/streptomycin (Invitrogen, Cat #15070063) and cultured at 37° C., 5% CO2 in a humidified chamber. All cell lines were routinely tested for mycoplasma.
# The effect of the CDK7 inhibitor to inhibit the growth of target cancer cells was evaluated through the 72 hours time period of viability assay. Briefly, the candidate cell line ware plated in 96 well plate at the following density of cells respectively. 1×10^4 cells/well for MOLT-4, RPMI-8226, MV4-11 and MM.1S, 5×10^3 for H460, HCT116 and OVCAR-3 and IX 10^3 for A2780. After 24 hours, the cells were treated with various concentrations of the compound (ranging from 0.0015 uM to 10 uM). DMSO solvent without compound served as a control and final DMSO concentration less than 0.1%. After 72 hours of incubation at 37° C., 5% CO2 incubator, cells were analyzed for the viability using the CellTiter-Glo Luminescent Cell Viability Assay (Promega, Cat #G7570). All viability assays were performed in duplicate and Luminescence was read using an Envision (Perkin Elmer, USA). Data was analyzed using XLfit software.
row,IC50,Compound
1,1 to 10 µM,CC(C)c1cnn2c(NCc3ccccc3-c3ccc4ccccc4n3)nc(NCC[C@H](O)CN)nc12 [Compound 247]
2,≤ 1 µM,CC(C)c1cnn2c(NCc3c(Cl)cccc3-n3ccc(C(C)(C)O)n3)nc(N3CCC(C)(N)CC3)nc12 [Compound 246]
3,≤ 1 µM,CC(C)c1cnn2c(NCc3ccccc3-c3ccc4cc(C(C)(C)O)ccc4n3)nc(N3CCC(O)(CN)CC3)nc12 [Compound 243]
4,≤ 1 µM,CC(C)c1cnn2c(NCc3c(Cl)cccc3C#N)nc(N3CCC(N)CC3)nc12 [Compound 242]
